* marks the point of attachment. Cbz = O=C(OCc1ccccc1)*; CH2F = FC*
Legend:
HT-1080 cells [1] = assay: Cell Titer Glo cell viability assay with radiation; assay type: cell-based; conditions: for Cell viability after radiation (ATP-based luciferase assay): HT-1080, 4 Gy radiation for 24 h
Method: HT-1080 cells were plated at 1,000 cells per well in white 96-well plates (100 uL per well) in technical duplicates. The cells were then treated with vehicle (DMSO), Ferrostatin-1, DFO, Z-VAD-FMK or Necrostatin-1S and incubated overnight. […] After another 24 h, 100 uL of 50% Cell Titer Glo (Promega) 50% cell culture medium was added to each well and incubated at room temperature with shaking for 15 min. Luminescence was measured using a Victor X5 plate reader (PerkinElmer). Experiments were performed three independent times with different passages for each cell line.

cleaved caspase-3 = assay: Western blot of cleaved caspase-3; assay type: cell-based
Method: 1 million cells were seeded in 10 cm dishes and treated with compounds and/or radiation on the next day. […] After quantification by Bradford, samples were mixed with 5×SDS loading buffer and separated by SDS-polyacrylamide gel electrophoresis. After transfer, membranes were blocked for 10 min in Tris-buffered saline (pH 7.4) with 1% Tween-20 (TBS-T) with 5% milk and incubated in primary antibody overnight at 4° C. Following 3× for 5 min washes in TBS-T, the membrane was incubated with secondary antibodies for 1 hr. The membrane was washed again in TBST 3× for 5 min prior to visualization using enhanced chemiluminescence (ECL Western Blotting Substrate, Pierce). Antibody for cleaved caspase 3 (Cell Signaling Technology, #9661) was used at 1:1000 and detected using a Peroxidase AffiniPure Goat Anti-Rabbit IgG (H+L) (Jackson ImmunoResearch, 111-295-144) at 1:5000 dilution.
DNA damage is a potent inducer of apoptosis. […] Despite this, some quantity of 17-kDa cleaved caspase-3 was still detectable in the Z-VAD-FMK-treated sample. To further check for potential radiation-induced apoptosis in this model at a later time point, we attempted to rescue the effects of radiation using 100 μM Z-VAD-FMK after 48, 72, and 96 h (FIG. 10).

[2] = system: TM00219 patient-derived xenograft tumors; assay: Patient-derived xenograft study in mice (TM00219 lung adenocarcinoma); assay type: in vivo; conditions: 40 mg/kg i.p. daily for 14 days, NSG mice
Method: The experiment was conducted according to the same protocol as the HT-1080 tumor xenograft study, with the exception that a single dose of radiation (sham or 6 Gy) was delivered to the tumor on day 1 of the experiment.
Finally, the effect of ferroptosis-inducing system xc^− inhibitors, in combination with radiation, was tested on a patient-derived xenograft (PDX) model of lung adenocarcinoma, which is another type of cancer commonly treated with radiation therapy. NSG mice engrafted with a human lung adenocarcinoma tumor (TM00219) were evaluated.

[3] = system: GSH in HT-1080 xenograft tumors; assay: Reduced glutathione in xenograft tumor tissue
Method: The cell pellet was resuspended in 100 μl of RIPA buffer and homogenized by pipetting. The lysate was centrifuged at 16,700×g at 4° C. for 15 min, and cleared lysate was used to determine the amount of GSH in the sample. We used the GSH/GSSG ratio detection assay kit (Abcam, #ab138881) and followed the product instructions to determine GSH levels.
The injections were repeated daily for 14 days. […] Tumor size was measured daily using calipers and mouse weight was measured daily. The animal protocols containing all the procedures were approved by Columbia University's IACUC.

HT-1080 cells [4] = assay: Clonogenic assay with Cs-137 gamma radiation, HT-1080; assay type: cell-based; design: key to CDI with radiation: CDI = AB/(A×B) of surviving fractions; <1 synergy; conditions: for CDI with radiation: 5 μM sorafenib, HT-1080; for Enhancement of radiation effect on clonogenic survival: HT-1080, cell death inducer plus radiation; for CDI with 4 Gy IR / CDI with 2 Gy IR: HT-1080 cells, CDI<1 synergy; for CDI with 2 Gy IR: inducer concentration (300 nM IKE, 20 nM RSL3, 1 nM staurosporine, 2 nM doxorubicin, 300 nM rapamycin, 100 ng/mL TNF + 20 μM Z-VAD-FMK + 300 nM birinapant); for Colony formation after radiation alone: HT-1080, 2 or 4 Gy radiation, no ferroptosis inducer
Method: 500 cells were seeded per well in 6-well plates in their respective growth media and incubated overnight. The next day, cells were co-treated with DMSO or compounds and radiation using a Gammacell 40 Caesium-137 irradiator (Theratronics). Plates were monitored every day using a light microscope for formation of colonies in the DMSO-treated wells. When colonies of >50 cells are clearly visible, the growth medium was discarded from all plates. The cells were washed with PBS, then fixed and stained with crystal violet solution (0.05% crystal violet, 1% formaldehyde, 1% methanol in PBS). Colonies were then directly visualized and counted.
We tested their ability to prevent clonogenic growth, along with DMSO-treated controls.
The coefficient of drug interaction (CDI), used to compute interaction between two drugs, was used to quantify synergy between cell death inducers and radiation according to the formula CDI=AB/(A×B), where AB is the surviving fraction of the combination treatment, and A and B are the surviving fractions of the individual treatments.

HT-1080 xenograft tumors = assay: HT-1080 tumor xenograft study in mice; conditions: 40 mg/kg i.p. daily for 14 days
Method: The injections were repeated daily for 14 days. […] For the sorafenib experiment, the formulation used was 40 mg/kg sorafenib in 5% DMSO, 20% ethanol in water containing 30% w/v cyclodextrin. […] Tumor size was measured daily using calipers and mouse weight was measured daily.
The efficacy of the combined treatment regimen of radiation and ferroptosis inducer was evaluated in an in vivo tumor model. […] Athymic nude mice were implanted with subcutaneous HT-1080 fibrosarcoma cells to form xenograft tumors.

[5] = system: reduced glutathione (GSH) in HT-1080 cells; assay: Reduced glutathione measurement in cells; assay type: cell-based; conditions: HT-1080, 6 Gy radiation for 24 hours, vs DMSO, sorafenib alone or radiation alone
Method: Cystine taken up by system xc^− is reduced to cysteine, a building block in the biosynthesis of glutathione. […] Using a fluorometric GSH probe, we observed that treatment with 2 or 6 Gy radiation for 24 hours depleted GSH in a dose-dependent manner in HT-1080 cells (FIG. 2E). […] Indeed, the decrease in colony formation of HT-1080 cells following 2 or 4 Gy radiation was rescued by either glutathione methyl ester or N-acetylcysteine, which is a biological precursor to glutathione (FIG. 9).

[6] = system: models of glioma, melanoma, and breast cancer; conditions: Cobler et al., 2018, Nagane et al., Sleire et al., 2015; cited from earlier work

Compound: CN1C(=O)NC(Cc2c[nH]c3c(Cl)cccc23)C1=O (stereo not drawn) [necrostatin-1S]
- Cell viability after radiation (ATP-based luciferase assay) (HT-1080 cells [1]): not

Compound: Cbz-Val-Ala-Asp-CH2F
- Rescue of cell viability after radiation at later time points (HT-1080 cells [1]; HT-1080, 100 μM Z-VAD-FMK, 48, 72, and 96 h): no significant rescue of cell viability
- Cell viability after radiation (ATP-based luciferase assay) (HT-1080 cells [1]): not
- Staurosporine-induced cell death (cleaved caspase-3; HT-1080, 500 nM staurosporine plus 100 μM Z-VAD-FMK): rescued from staurosporine-induced cell death

Compound: CNC(=O)c1cc(Oc2ccc(NC(=O)Nc3ccc(Cl)c(C(F)(F)F)c3)cc2)ccn1 [sorafenib]
- Tumor growth, combination with radiation vs all other groups ([2]; 6 Gy on day one): significant tumor growth inhibition
- Tumor growth, drug alone vs vehicle only [2]: significant tumor control
- GSH in tumor tissue, sorafenib vs vehicle ([3]; 40 mg/kg sorafenib i.p. 14 days): significantly lower GSH
- GSH in tumor tissue, dual-treated ([3]; 40 mg/kg sorafenib i.p. 14 days plus 6 Gy on days 1 and 3): further significant GSH depletion
- CDI with radiation (HT-1080 cells [4]; 2 Gy): 0.65
- CDI with radiation (HT-1080 cells [4]; 4 Gy): 0.47
- Tumor volume, sorafenib alone vs control (HT-1080 xenograft tumors): No difference was observed
- Levels of GSH, sorafenib plus radiation [5]: significant depletion of GSH

Compound: COc1cccc2c1C(=O)c1c(O)c3c(c(O)c1C2=O)C[C@@](O)(C(=O)CO)C[C@@H]3O[C@H]1C[C@H](N)[C@H](O)[C@H](C)O1 [doxorubicin]
- Enhancement of radiation effect on clonogenic survival (HT-1080 cells [4]): only slightly enhancing radiation-induced cell death
- CDI with 4 Gy IR (HT-1080 cells [4]): 0.9
- CDI with 2 Gy IR (HT-1080 cells [4]): 1.07

Compound: CO[C@H]1C[C@@H]2CC[C@@H](C)[C@@](O)(O2)C(=O)C(=O)N2CCCC[C@H]2C(=O)O[C@H]([C@H](C)C[C@@H]2CC[C@@H](O)[C@H](OC)C2)CC(=O)[C@H](C)/C=C(\C)[C@@H](O)[C@@H](OC)C(=O)[C@H](C)C[C@H](C)/C=C/C=C/C=C/1C [rapamycin]
- CDI with 4 Gy IR (HT-1080 cells [4]): 0.62
- CDI with 2 Gy IR (HT-1080 cells [4]): 0.89

Compound: CN[C@@H]1C[C@H]2O[C@@](C)([C@@H]1OC)n1c3ccccc3c3c4c(c5c6ccccc6n2c5c31)C(=O)NC4 [staurosporine]
- Enhancement of radiation effect on clonogenic survival (HT-1080 cells [4]): only slightly enhancing radiation-induced cell death
- CDI with 4 Gy IR (HT-1080 cells [4]): 0.83
- CDI with 2 Gy IR (HT-1080 cells [4]): 1.1
- Cleavage of caspase-3, compound alone (cleaved caspase-3; HT-1080, IKE or RSL3 24 h, staurosporine 500 nM for 6 h): induced cell death along with levels of caspase-3 cleavage

Compound: CC(=O)N[C@@H](CS)C(=O)O [N-acetylcysteine]
- Colony formation after radiation alone (HT-1080 cells [4]): rescued

Compound: O=C(O)c1cc(/N=N/c2ccc(S(=O)(=O)Nc3ccccn3)cc2)ccc1O [sulfasalazine]
- Potentiation of radiation (prior reports) [6]: potentiate radiation

Compound: Cn1cnc(N)c2ncnc1-2 [3-methyladenine]
- Cell viability after radiation (ATP-based luciferase assay) (HT-1080 cells [1]): also rescued cells

Compound: COC(=O)CNC(=O)[C@H](CS)NC(=O)CC[C@H](N)C(=O)O [glutathione methyl ester]
- Colony formation after radiation alone (HT-1080 cells [4]): rescued

Compound: Cc1c(C)c2c(c(C)c1O)CCC(C)(C(=O)O)O2 (stereo not drawn) [trolox]
- Colony formation after radiation alone (HT-1080 cells [4]): partially rescued cell death induced by radiation alone
- Synergy between IKE or RSL3 and radiation in colony formation (HT-1080 cells [4]; HT-1080, co-treatment with ferroptosis inhibitor): suppress the synergy
